Tested on: 519858-162-T-J1-PDC complex spheroid growth, % test/control
Assay: Anticancer human tumor 519858-162-T-J1-PDC patient-derived colon adenocarcinoma cell line growth inhibition [Asc]
Conditions: for IC50: curve of first compound; for viability, T/C: stronger effect = lower value
How it was run: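 Stromal components (HUVEC and hMSC) are co-assembled with the cancer cells into multicellular spheroids. Drugs are then added singly or paired, at concentrations falling by half-log increments from a clinically achievable maximum, capped at 10 microM without known Cmax.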

[1] = second compound 0.00316 µM, first compound 0.0316 µM
[2] = second compound 0.00316 µM, first compound 0.1 µM
[3] = second compound 0.00316 µM, first compound 0.316 µM
[4] = second compound 0.00316 µM, first compound 1 µM
[5] = second compound 0.00316 µM, first compound 3.16 µM
[6] = second compound 0.00316 µM, first compound 10 µM
[7] = second compound 0.01 µM, first compound 0.0316 µM
[8] = second compound 0.01 µM, first compound 0.1 µM
[9] = second compound 0.01 µM, first compound 0.316 µM
[10] = second compound 0.01 µM, first compound 1 µM
[11] = second compound 0.01 µM, first compound 3.16 µM
[12] = second compound 0.01 µM, first compound 10 µM
[13] = second compound 0.0316 µM, first compound 0.0316 µM
[14] = second compound 0.0316 µM, first compound 0.1 µM
[15] = second compound 0.0316 µM, first compound 0.316 µM
[16] = second compound 0.0316 µM, first compound 1 µM
[17] = second compound 0.0316 µM, first compound 3.16 µM
[18] = second compound 0.0316 µM, first compound 10 µM
[19] = second compound 0.1 µM, first compound 0.0316 µM
[20] = second compound 0.1 µM, first compound 0.1 µM
[21] = second compound 0.1 µM, first compound 0.316 µM
[22] = second compound 0.1 µM, first compound 1 µM
[23] = second compound 0.1 µM, first compound 3.16 µM
[24] = second compound 0.1 µM, first compound 10 µM
[25] = second compound 0.316 µM, first compound 0.0316 µM
[26] = second compound 0.316 µM, first compound 0.1 µM
[27] = second compound 0.316 µM, first compound 0.316 µM
[28] = second compound 0.316 µM, first compound 1 µM
[29] = second compound 0.316 µM, first compound 3.16 µM
[30] = second compound 0.316 µM, first compound 10 µM
[31] = second compound 1 µM, first compound 0.0316 µM
[32] = second compound 1 µM, first compound 0.1 µM
[33] = second compound 1 µM, first compound 0.316 µM
[34] = second compound 1 µM, first compound 1 µM
[35] = second compound 1 µM, first compound 3.16 µM
[36] = second compound 1 µM, first compound 10 µM
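Note: seven day drug exposure begun three days after spheroid seeding.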
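Throughout, for viability, T/C: 100% = DMSO vehicle wells and lower values mean less viable spheroid.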

For `C#Cc1c(F)ccc2cc(O)cc(-c3ncc4c(N5CC6CCC(C5)N6)nc(OCC56CCCN5CC(F)C6)nc4c3F)c12` (stereo unspecified) + CNC(C)C(=O)NC1CN(S(=O)(=O)c2cccc(S(=O)(=O)N3CCC4CCC(C(=O)NC(c5ccccc5)c5ccccc5)N4C(=O)C(NC(=O)C(C)NC)C3)c2)CCC2CCC(C(=O)NC(c3ccccc3)c3ccccc3)N2C1=O, the IC50 (second compound 0.00316 µM) was > 10 µM, the IC50 (second compound 0.01 µM) was > 10 µM and the IC50 (second compound 0.0316 µM) was > 10 µM. The IC50 (second compound 0.1 µM) was > 10 µM, the IC50 (second compound 0.316 µM) was > 10 µM and the IC50 (second compound 1 µM) was > 10 µM. It also gave a viability, T/C [1] of 138%, a viability, T/C [2] of 111% and a viability, T/C [3] of 99.4%. For the same compound, the viability, T/C [4] was 100%, the viability, T/C [5] was 82.1% and the viability, T/C [6] was 72.1%. The viability, T/C [7] was 97.8%, the viability, T/C [8] was 91.2% and the viability, T/C [9] was 93.6%. For the same compound, the viability, T/C [10] was 86.1%, the viability, T/C [11] was 81.2% and the viability, T/C [12] was 77.3%. For the same compound, the viability, T/C [13] was 96.5%, the viability, T/C [14] was 82.4% and the viability, T/C [15] was 86.3%. It also gave a viability, T/C [16] of 102%, a viability, T/C [17] of 75.2% and a viability, T/C [18] of 105%. The viability, T/C [19] was 123%, the viability, T/C [20] was 123% and the viability, T/C [21] was 117%. It also gave a viability, T/C [22] of 97.6%, a viability, T/C [23] of 88.1% and a viability, T/C [24] of 94.9%. It also gave a viability, T/C [25] of 78.8%, a viability, T/C [26] of 97.6% and a viability, T/C [27] of 111%. It also gave a viability, T/C [28] of 115%, a viability, T/C [29] of 87.8% and a viability, T/C [30] of 92.2%. The viability, T/C [31] was 86.5%, the viability, T/C [32] was 93.2% and the viability, T/C [33] was 92.2%. The viability, T/C [34] was 77.9%, the viability, T/C [35] was 112% and the viability, T/C [36] was 106%.

In the case of `C=C(F)C(=O)N1CCN(c2nc(OCC3CCCN3C)nc3c2CCN(c2cccc4cccc(Cl)c24)C3)CC1CC#N` (stereo unspecified) + CNC(C)C(=O)NC1CN(S(=O)(=O)c2cccc(S(=O)(=O)N3CCC4CCC(C(=O)NC(c5ccccc5)c5ccccc5)N4C(=O)C(NC(=O)C(C)NC)C3)c2)CCC2CCC(C(=O)NC(c3ccccc3)c3ccccc3)N2C1=O, the IC50 (second compound 0.00316 µM) is reported as > 10 µM, the IC50 (second compound 0.01 µM) is reported as > 10 µM and the IC50 (second compound 0.0316 µM) is reported as > 10 µM. The IC50 (second compound 0.1 µM) was > 10 µM, the IC50 (second compound 0.316 µM) was > 10 µM and the IC50 (second compound 1 µM) was > 10 µM. The viability, T/C [1] was 102%, the viability, T/C [2] was 86.8% and the viability, T/C [3] was 102%. The viability, T/C [4] was 92.7%, the viability, T/C [5] was 94.8% and the viability, T/C [6] was 113%. For the same compound, the viability, T/C [7] was 104%, the viability, T/C [8] was 83.7% and the viability, T/C [9] was 91.2%. For the same compound, the viability, T/C [10] was 82%, the viability, T/C [11] was 96.7% and the viability, T/C [12] was 108%. The viability, T/C [13] was 94.7%, the viability, T/C [14] was 83.7% and the viability, T/C [15] was 86.3%. It also gave a viability, T/C [16] of 93.4%, a viability, T/C [17] of 95.7% and a viability, T/C [18] of 107%. The viability, T/C [19] was 93.1%, the viability, T/C [20] was 91.2% and the viability, T/C [21] was 93.3%. It also gave a viability, T/C [22] of 89.2%, a viability, T/C [23] of 86.8% and a viability, T/C [24] of 116%. It also gave a viability, T/C [25] of 88.2%, a viability, T/C [26] of 96.9% and a viability, T/C [27] of 106%. For the same compound, the viability, T/C [28] was 92.9%, the viability, T/C [29] was 82.2% and the viability, T/C [30] was 107%. The viability, T/C [31] was 93.6%, the viability, T/C [32] was 101% and the viability, T/C [33] was 103%. The viability, T/C [34] was 92.6%, the viability, T/C [35] was 91.2% and the viability, T/C [36] was 112%.

In the case of `Cc1nc(N2CCC3(CC2)COC(C)C3N)c(CO)nc1Sc1ccnc(N)c1Cl` (stereo unspecified) + CNC(C)C(=O)NC1CN(S(=O)(=O)c2cccc(S(=O)(=O)N3CCC4CCC(C(=O)NC(c5ccccc5)c5ccccc5)N4C(=O)C(NC(=O)C(C)NC)C3)c2)CCC2CCC(C(=O)NC(c3ccccc3)c3ccccc3)N2C1=O, the IC50 (second compound 0.00316 µM) is reported as > 3 µM, the IC50 (second compound 0.01 µM) is reported as > 3 µM and the IC50 (second compound 0.0316 µM) is reported as > 3 µM. For the same compound, the IC50 (second compound 0.1 µM) was > 3 µM, the IC50 (second compound 0.316 µM) was > 3 µM and the IC50 (second compound 1 µM) was > 3 µM. For the same compound, the viability, T/C (second compound 0.00316 µM, first compound 0.00949 µM) was 112%, the viability, T/C (second compound 0.00316 µM, first compound 0.03 µM) was 91.2% and the viability, T/C (second compound 0.00316 µM, first compound 0.0949 µM) was 91.2%. The viability, T/C (second compound 0.00316 µM, first compound 0.3 µM) was 62.1%, the viability, T/C (second compound 0.00316 µM, first compound 0.949 µM) was 62.1% and the viability, T/C (second compound 0.00316 µM, first compound 3 µM) was 71.1%. The viability, T/C (second compound 0.01 µM, first compound 0.00949 µM) was 100%, the viability, T/C (second compound 0.01 µM, first compound 0.03 µM) was 120% and the viability, T/C (second compound 0.01 µM, first compound 0.0949 µM) was 102%. For the same compound, the viability, T/C (second compound 0.01 µM, first compound 0.3 µM) was 68%, the viability, T/C (second compound 0.01 µM, first compound 0.949 µM) was 55.3% and the viability, T/C (second compound 0.01 µM, first compound 3 µM) was 61%. The viability, T/C (second compound 0.0316 µM, first compound 0.00949 µM) was 83.8%, the viability, T/C (second compound 0.0316 µM, first compound 0.03 µM) was 91.4% and the viability, T/C (second compound 0.0316 µM, first compound 0.0949 µM) was 96.8%. For the same compound, the viability, T/C (second compound 0.0316 µM, first compound 0.3 µM) was 81.5%, the viability, T/C (second compound 0.0316 µM, first compound 0.949 µM) was 84.5% and the viability, T/C (second compound 0.0316 µM, first compound 3 µM) was 60.8%. The viability, T/C (second compound 0.1 µM, first compound 0.00949 µM) was 87.7%, the viability, T/C (second compound 0.1 µM, first compound 0.03 µM) was 84.5% and the viability, T/C (second compound 0.1 µM, first compound 0.0949 µM) was 87.7%. The viability, T/C (second compound 0.1 µM, first compound 0.3 µM) was 72.6%, the viability, T/C (second compound 0.1 µM, first compound 0.949 µM) was 74.5% and the viability, T/C (second compound 0.1 µM, first compound 3 µM) was 64.8%. The viability, T/C (second compound 0.316 µM, first compound 0.00949 µM) was 96.9%, the viability, T/C (second compound 0.316 µM, first compound 0.03 µM) was 85.3% and the viability, T/C (second compound 0.316 µM, first compound 0.0949 µM) was 82.1%. It also gave a viability, T/C (second compound 0.316 µM, first compound 0.3 µM) of 71.4%, a viability, T/C (second compound 0.316 µM, first compound 0.949 µM) of 42.8% and a viability, T/C (second compound 0.316 µM, first compound 3 µM) of 64.2%. For the same compound, the viability, T/C (second compound 1 µM, first compound 0.00949 µM) was 103%, the viability, T/C (second compound 1 µM, first compound 0.03 µM) was 80.8% and the viability, T/C (second compound 1 µM, first compound 0.0949 µM) was 69.4%. It also gave a viability, T/C (second compound 1 µM, first compound 0.3 µM) of 74.5%, a viability, T/C (second compound 1 µM, first compound 0.949 µM) of 92.5% and a viability, T/C (second compound 1 µM, first compound 3 µM) of 75.7%.

Reference: PubChem BioAssay AID1963421 (Molecular Pharmacology Branch, DTP, NCI, 2024)
